The values that follow come from patent US6926890B2, “Non-invasive approach for assessing tumors in living animals” (priority 2000, dated 2005).

“Also recorded” adds a separate entry of the source.

The subject of one series is EMT6-CG-TK cells. Nature of the series: Ganciclovir treatment of intraperitoneal EMT6-CG-TK tumors monitored by urinary β-hCG. It is filed as in vivo, Balb/c mice. The method, then:
(§1) FIG. 5C. Urinary β-hCG levels before and after ganciclovir (GCV) treatment of intraperitoneal tumors. Five Balb/c mice were injected intraperitoneally with 4×10^6 EMT6-CG-TK cells (black symbols). They received a four-day course of ganciclovir (150 mg/kg/day), administered intraperitoneally beginning three days after tumor cell injection.
(§2) The β-hCG MAIAclone kit (Polymedco Inc. Cortlandt Manor, N.Y.), based on an immunoradiometric system, was used for quantitative determination of urinary β-hCG. Fifty μl of mouse urine samples diluted to achieve a final β-hCG concentration of 2.5-20 mIU/ml, standards, positive and negative controls were mixed with 0.5 ml of ^125I anti-hCG antibodies in 12×75 mm glass tubes (VWR Scientific, Boston, Mass.) and incubated at 37° C. for 15 min. […] The radioactivity of each sample was analyzed in a Gamma 5500 counter (Beckman, Fullerton, Calif.). […] Urinary β-hCG levels were normalized to urinary creatinine measured with a Roche Hitachi 917 analyzer (Roche Diagnostics, Indianapolis, Ind.). The ratio of β-hCG to creatinine was expressed as mIU β-hCG/mg creatinine.
(§3) Next the recombinant tumor system of the present invention was applied to a chemotherapeutic model. […] The difference between the kinetics of tumor cell death mediated by surgery and chemotherapy is readily evident through comparison of FIGS. 5A and 5C.

For another series, the system named is EMT6-CG tumors. Nature of the series: Ganciclovir treatment of control EMT6-CG tumors monitored by urinary β-hCG. The format is in vivo, Balb/c mice. As to conditions: control EMT6-CG tumors without thymidine kinase. The method, then: as §1, §2, §3
Series [1] can be described thus: Comparison of β-hCG concentrations in urine and serum of mice with subcutaneous B16-CG tumors. Particulars: serum 10-240 mIU/ml, six mice. The format is in vivo. The method, then: The β-hCG MAIAclone kit (Polymedco Inc. Cortlandt Manor, N.Y.), based on an immunoradiometric system, was used for quantitative determination of urinary β-hCG. Fifty μl of mouse urine samples diluted to achieve a final β-hCG concentration of 2.5-20 mIU/ml, standards, positive and negative controls were mixed with 0.5 ml of ^125I anti-hCG antibodies in 12×75 mm glass tubes (VWR Scientific, Boston, Mass.) and incubated at 37° C. for 15 min. Two hundred μl of the magnetic separation matrix provided with the kit was then added to each tube and incubated for 5 min at room temperature. The magnetic reagent with bound β-hCG was separated using a magnetic concentrator (Polymedco Inc.). The matrix was washed in 0.5 ml of the MAIAclone washing buffer provided with the kit and reseparated magnetically. The radioactivity of each sample was analyzed in a Gamma 5500 counter (Beckman, Fullerton, Calif.). The minimal detectable level of β-hCG was 2.5 mIU/ml. Urinary β-hCG levels were normalized to urinary creatinine measured with a Roche Hitachi 917 analyzer (Roche Diagnostics, Indianapolis, Ind.). The ratio of β-hCG to creatinine was expressed as mIU β-hCG/mg creatinine.
To determine whether β-hCG would be excreted in the urine of mice, as it is in pregnant women, the concentrations of β-hCG in urine and serum of mice with subcutaneous B16-CG tumors were compared. […]

Series [2] in a line: Clearance of urinary β-hCG after surgical removal of subcutaneous SW480-CG tumors. The format is in vivo, athymic (nu/nu) mice. The method, then:
Female mice, 10-12 weeks old, were obtained from Harlan (Indianapolis, Ind.). For tail vein injections, 10^5 B 16-CG cells in 0.1 ml PBS were injected into C57BL/6 mice. For intraperitoneal administration, 2×10^6 EMT6-CG cells in 0.3 ml PBS were injected intraperitoneally into Balb/c mice. For intrasplenic injection, 10^6 B16-CG cells in 0.1 ml PBS were injected into the spleens of athymic (nu/nu) mice. For subcutaneous injection, 3×10^6 B16-CG cells or 8×10^6 SW480-CG cells in 0.1 ml PBS were injected into subcutaneous tissues adjacent to the lower spine of athymic (nu/nu) mice.
as §2, with “creatinine. […]” for “creatinine.”

With `Nc1nc(O)c2ncn(COC(CO)CO)c2n1` [ganciclovir], the “Urinary β-hCG levels after ganciclovir treatment” value in the series with EMT6-CG-TK cells (ganciclovir 150 mg/kg/day intraperitoneally, four-day course beginning three days after tumor cell injection) is given as “began to decline one day after the start of ganciclovir treatment; also recorded: declined to background levels over the next five days”. Further, the “Necropsy finding after ganciclovir treatment” value in the series on EMT6-CG-TK cells (necropsy after β-hCG declined to background) is “apparently tumor free, without ascites or peritoneal implants”. The “Tumor response to ganciclovir (urinary β-hCG)” value in the series with EMT6-CG tumors is recorded as “did not respond; also recorded: continued to grow”.

B1: β-hCG: β-subunit of human chorionic gonadotropin, glycoprotein hormone secreted by recombinant tumor cells as urinary marker (protein)
chain: SKEPLRPRCRPINATLAVEKEGCPVCITVNTTICAGYCPTMTRVLQGVLPALPQVVCNYRDVRFESIRLPGCPRGVNPVVSYAVALSCQCALCRRSTTDCGGPKDHPLTCDDPRFQDSSSSKAPPPSLPSPSRLPGPSDTPILPQ
In the case of B1, the “urine concentration relative to serum concentration of β-hCG” value in series [1] was 3.8±0.31 times the serum concentration. Also, the “half-life of urinary β-hCG” value in series [2] (after surgical removal of SW480-CG tumors, eight animals) was determined as 11 ± 2.3 h. Also, the “Urinary β-hCG levels after tumor removal” value in series [2] (subcutaneous SW480-CG tumors removed 18 days after implantation, within a day or two of removal) is reported as “rapidly dropped to undetectable levels”.
